Results from patent publication US12077503B2, “Substituted cyclic amides and their use as herbicides” (FMC CORPORATION, priority 2015, dated 2024).

How the values were obtained:
Assay type in all cases: in vivo
[1] = tested on: ryegrass, Italian (Italian ryegrass, Lolium multiflorum); experiment: Test A preemergence; details: Lolium multiflorum, pre-emergence, 240 h; for pest or weed control at 125 g/ha: 125 g ai/ha, Preemergence, visual injury rating after approximately 10 d, read-out: Ryegrass, Italian plant response rating (0 to 100 scale, 0 is no effect, 100 is complete control); for pest or weed control at 500 g/ha: 500 g ai/ha, preemergence, visual injury rating about 10 d after treatment, 0 to 100 scale (0 no effect, 100 complete control), read-out: Ryegrass, Italian plant response rating
Outline: (§1)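 In a loam soil and sand blend, planted seeds got a preemergence directed soil spray, and young plants at the one- to two-leaf stage, 2–10 cm high, got a postemergence application; ~10 d greenhouse hold; injury rated visually, 0 = none, 100 = complete control.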

[2] = tested on: ragweed (common ragweed, Ambrosia elatior); experiment: Test A preemergence; details: Ambrosia artemisiifolia, pre-emergence, 240 h; for pest or weed control at 125 g/ha: 125 g ai/ha, Preemergence, visual injury rating after approximately 10 d, read-out: Ragweed plant response rating (0 to 100 scale, 0 is no effect, 100 is complete control); for pest or weed control at 500 g/ha: 500 g ai/ha, preemergence, visual injury rating about 10 d after treatment, 0 to 100 scale (0 no effect, 100 complete control), read-out: Ragweed plant response rating
Outline: as §1

Kochia (Kochia scoparia) [3] = experiment: Test A preemergence; details: Bassia scoparia, pre-emergence, 240 h; for pest or weed control at 125 g/ha: 125 g ai/ha, Preemergence, visual injury rating after approximately 10 d, read-out: Kochia plant response rating (0 to 100 scale, 0 is no effect, 100 is complete control); for pest or weed control at 500 g/ha: 500 g ai/ha, preemergence, visual injury rating about 10 d after treatment, 0 to 100 scale (0 no effect, 100 complete control), read-out: Kochia plant response rating
Outline: as §1

[4] = tested on: barnyardgrass (Echinochloa crus-galli); experiment: Test A preemergence; details: Echinochloa crus-galli, pre-emergence, 240 h; for pest or weed control at 125 g/ha: 125 g ai/ha, Preemergence, visual injury rating after approximately 10 d, read-out: Barnyardgrass plant response rating (0 to 100 scale, 0 is no effect, 100 is complete control); for pest or weed control at 500 g/ha: 500 g ai/ha, preemergence, visual injury rating about 10 d after treatment, 0 to 100 scale (0 no effect, 100 complete control), read-out: Barnyardgrass plant response rating
Outline: as §1

[5] = tested on: pigweed (Amaranthus retroflexus); experiment: Test A preemergence; details: Amaranthus retroflexus, pre-emergence, 240 h; for pest or weed control at 125 g/ha: 125 g ai/ha, Preemergence, visual injury rating after approximately 10 d, read-out: Pigweed plant response rating (0 to 100 scale, 0 is no effect, 100 is complete control); for pest or weed control at 500 g/ha: 500 g ai/ha, preemergence, visual injury rating about 10 d after treatment, 0 to 100 scale (0 no effect, 100 complete control), read-out: Pigweed plant response rating
[6] = tested on: giant foxtail (Setaria faberii); experiment: Test A preemergence; details: Setaria faberi, pre-emergence, 240 h; for pest or weed control at 125 g/ha: 125 g ai/ha, Preemergence, visual injury rating after approximately 10 d, read-out: Foxtail, Giant plant response rating (0 to 100 scale, 0 is no effect, 100 is complete control); for pest or weed control at 500 g/ha: 500 g ai/ha, preemergence, visual injury rating about 10 d after treatment, 0 to 100 scale (0 no effect, 100 complete control), read-out: Foxtail, Giant plant response rating
Outline: as §1

rice (Oryra sativa) = experiment: Test B flooded paddy test; details: Oryza sativa, Flood, 250 g ai/ha; scale of 0 to 100 where 0 is no effect and 100 is complete control; read-out: Rice plant response rating
Outline: (§2)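 Flooding to 3 cm over soil accompanied treatment, which consisted of adding compound to the standing water around 2-leaf plants; depth was then maintained. Visual assessment versus controls followed at 13 to 15 d (scale 0–100, 0 meaning no effect).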

[7] = tested on: sedge, umbrella (small-flower umbrella sedge, Cyperus difformis); experiment: Test B flooded paddy test; details: Cyperus difformis, Flood, 250 g ai/ha; scale of 0 to 100 where 0 is no effect and 100 is complete control; read-out: Sedge, Umbrella plant response rating
Outline: as §2

[8] = tested on: barnyardgrass (Echinochloa crus-galli); experiment: Test B flooded paddy test; details: Echinochloa crus-galli, Flood, 250 g ai/ha; scale of 0 to 100 where 0 is no effect and 100 is complete control; read-out: Barnyardgrass plant response rating
Outline: as §2

[9] = tested on: ducksalad (Heteranthera limosa); experiment: Test B flooded paddy test; details: Heteranthera limosa, Flood, 250 g ai/ha; scale of 0 to 100 where 0 is no effect and 100 is complete control; read-out: Ducksalad plant response rating
Outline: as §2

[10] = tested on: Galium (catchweed bedstraw, Galium aparine); experiment: Test A postemergence; details: Galium, post-emergence, 240 h, 125 g ai/ha, Postemergence; visual injury after approximately 10 d; 0 to 100 scale where 0 is no effect and 100 is complete control; read-out: Plant response rating, Galium
Outline: as §1

[11] = tested on: ryegrass, Italian (Italian ryegrass, Lolium multiflorum); experiment: Test A postemergence; details: Lolium multiflorum, post-emergence, 240 h, 125 g ai/ha, Postemergence; visual injury after approximately 10 d; 0 to 100 scale where 0 is no effect and 100 is complete control; read-out: Plant response rating, Ryegrass, Italian
Outline: as §1

[12] = tested on: ragweed (common ragweed, Ambrosia elatior); experiment: Test A postemergence; details: Ambrosia artemisiifolia, post-emergence, 240 h, 125 g ai/ha, Postemergence; visual injury after approximately 10 d; 0 to 100 scale where 0 is no effect and 100 is complete control; read-out: Plant response rating, Ragweed
Outline: as §1

Kochia (Kochia scoparia) [13] = experiment: Test A postemergence; details: Bassia scoparia, post-emergence, 240 h, 125 g ai/ha, Postemergence; visual injury after approximately 10 d; 0 to 100 scale where 0 is no effect and 100 is complete control; read-out: Plant response rating, Kochia
Outline: as §1

[14] = tested on: wheat (Triticum aestivum); experiment: Test A postemergence; details: Triticum aestivum, post-emergence, 240 h, 125 g ai/ha, Postemergence; visual injury after approximately 10 d; 0 to 100 scale where 0 is no effect and 100 is complete control; read-out: Plant response rating, Wheat
Outline: as §1

corn (Zea mays) = experiment: Test A postemergence; details: Zea mays, post-emergence, 240 h, 125 g ai/ha, Postemergence; visual injury after approximately 10 d; 0 to 100 scale where 0 is no effect and 100 is complete control
Outline: as §1

[15] = tested on: pigweed (Amaranthus retroflexus); experiment: Test A postemergence; details: Amaranthus retroflexus, post-emergence, 240 h, 125 g ai/ha, Postemergence; visual injury after approximately 10 d; 0 to 100 scale where 0 is no effect and 100 is complete control; read-out: Plant response rating, Pigweed
Outline: as §1

[16] = tested on: blackgrass (Alopecurus myosuroides); experiment: Test A postemergence; details: Alopecurus myosuroides, post-emergence, 240 h, 125 g ai/ha, Postemergence; visual injury after approximately 10 d; 0 to 100 scale where 0 is no effect and 100 is complete control; read-out: Plant response rating, Blackgrass
Outline: as §1

[17] = tested on: giant foxtail (Setaria faberii); experiment: Test A postemergence; details: Setaria faberi, post-emergence, 240 h, 125 g ai/ha, Postemergence; visual injury after approximately 10 d; 0 to 100 scale where 0 is no effect and 100 is complete control; read-out: Plant response rating, Foxtail, Giant
Outline: as §1

Structure (SMILES) | pest or weed control at 125 g/ha [1] [%] | pest or weed control at 500 g/ha [1] [%] | pest or weed control at 500 g/ha [2] [%] | pest or weed control at 125 g/ha (Kochia (Kochia scoparia) [3]) [%] | pest or weed control at 500 g/ha (Kochia (Kochia scoparia) [3]) [%] | pest or weed control at 125 g/ha [4] [%] | pest or weed control at 500 g/ha [4] [%] | pest or weed control at 125 g/ha [5] [%] | pest or weed control at 500 g/ha [5] [%] | pest or weed control at 125 g/ha [6] [%] | pest or weed control at 500 g/ha [6] [%] | pest or weed control at 250 g/ha (rice (Oryra sativa)) [%] | pest or weed control at 250 g/ha [7] [%] | pest or weed control at 250 g/ha [8] [%] | pest or weed control at 250 g/ha [9] [%] | pest or weed control at 125 g/ha [10] [%] | pest or weed control at 125 g/ha [11] [%] | pest or weed control at 125 g/ha [12] [%] | pest or weed control at 125 g/ha (Kochia (Kochia scoparia) [13]) [%] | plant injury at 125 g/ha [14] [%] | further results
Cc1c(F)cccc1NC(=O)[C@H]1C(=O)N(C)C[C@@H]1c1cc(F)cc(Cl)c1 [Compound 978] | 60 | 90 | 90 | 40 | 90 | 90 | 90 | 0 | 50 | 90 | 90 | 30 | 0 | 65 | 100 | 50 | 50 | 0 | 0 | 70 | pest or weed control at 125 g/ha [2]: 90%; Corn plant response rating (crop injury, 0 = no effect, 100 = complete kill) at 125 g/ha (corn (Zea mays)): 60%; pest or weed control at 125 g/ha [15]: 0%; pest or weed control at 125 g/ha [16]: 60%; pest or weed control at 125 g/ha [17]: 90%
COc1cc(OC)cc([C@H]2CN(C)C(=O)[C@@H]2C(=O)Nc2ccccc2SC)c1 [Compound 981] | 0 | 60 | 50 | 0 | 90 | 90 | 100 | 0 | 0 | 90 | 100 | 0 | 0 | 0 | 0 | 0 | 0 | 0 | 0 | 0 | pest or weed control at 125 g/ha [2]: 0%; Corn plant response rating (crop injury, 0 = no effect, 100 = complete kill) at 125 g/ha (corn (Zea mays)): 0%; pest or weed control at 125 g/ha [15]: 0%; pest or weed control at 125 g/ha [16]: 0%; pest or weed control at 125 g/ha [17]: 70%
CSc1ccccc1NC(=O)[C@H]1C(=O)N(C)C[C@@H]1c1cc(F)cc(Cl)c1 [Compound 975] | 30 | 40 | 90 | 50 | 90 | 90 | 100 | 20 | 90 | 90 | 90 | 0 | 0 | 40 | 90 | 50 | 20 | 0 | 40 | 20 | Corn plant response rating (crop injury, 0 = no effect, 100 = complete kill) at 125 g/ha (corn (Zea mays)): 20%; pest or weed control at 125 g/ha [15]: 30%; pest or weed control at 125 g/ha [16]: 50%; pest or weed control at 125 g/ha [17]: 90%
